In one series the test system is Strain K1/1. Kind of series: Growth and induction of the acylase of Rhodococcus globerulus K1/1, variation of the inducer. The series is classed as cell-based. To be noted: for induction of acylase formation by strain K1/1: racemic inducer, 0-9.84 mM. The protocol: Strain K1/1 is grown in shake flask culture using the medium from example 21, but with 2 g/l of each yeast extract and peptone, with racemic 2-acetylamino-1-phenyl-4-pentene or alternatively racemic N-acetyl-1-phenylethylamine as the inducer in concentrations of 0, 4.92, 7.38, and 9.84 mM.

Another series relates to K1/1 acylase. Kind of series: Hydrolysis of racemic 2-acetylamino-1-phenyl-4-pentene with the purified K1/1 acylase. The series is classed as biochemical, Rhodococcus globerulus K1/1. Here is the method:
To 50 ml of a 10 mM solution of racemic 2-acetylamino-1-phenyl-4-pentene in phosphate buffer (pH 7.0) 7 ml of the K1/1 acylase are added (0.456 U), which has been purified by HIC and concentrated by ultrafiltration (example 26.5 and 26.6). The deacylation is performed at 30° C. under continuous shaking at 200 rpm. The reaction is monitored by HPLC (see example 1), and after the conversion is about 50% the solution is acidified to pH 2 with 1 N HCl and extracted three times with one volume of dichloromethane to obtain the unconverted amides. The aqueous phase is neutralized with 1 N NaOH and extracted again three times with dichloromethane to recover the formed amines. Both organic phases are dried with MgSO4, filtered and the solvent is distilled off. The amides are used directly for optical purity determinations via HPLC under the following conditions: Chiralcel OJ column, hexane/isopropanol 9:1 as the eluent, flow rate 1 ml/min., detection at 208 nm. The obtained amines are converted to the acetamides by adding […] to each sample before being also analyzed for the optical purity by HPLC.

For series [1], the system named is acylase from Arthrobacter aurescens Ac5R. Kind of series: Enzymatic hydrolysis of racemic amides with highly purified acylase from Arthrobacter aurescens Ac5R. The series is classed as biochemical. The protocol:
(§1) To 10 ml of a 20 mM solution of each of the racemic amides shown below 1 in 0.1 M phosphate buffer pH 7.0, 5 ml (1.3 units) of the enzyme is added and the solutions are shaken at 100 rpm and 30° C. [drawing 10] [drawing 11]
(§2) When the conversion reaches about 50% (checked by HPLC) the solutions are acidified to pH 2 by adding 1 N HCl and extracted three times with dichloromethane to obtain the unconverted amides. The aqueous layers are neutralized with 1 N NaOH solution and extracted again three times with dichloromethane to recover the formed amines. Both organic phases are dried with MgSO4, filtered and the solvent is distilled off. The amides are used directly for optical purity determinations (HPLC), whereas the obtained amines are converted to the acetamides by adding 100 μl triethylamine and 100 μl acetic anhydride to each sample and then analyzed for the optical purity by "chiral" HPLC.

Series [2] has as its target T1, acylase from Rhodococcus equi Ac6 (Rhodococcus (subgen. Prescottella) equi, UniProt A0A3S5Y3Z2).
T1 construct: N-terminus […]
Kind of series: Enzymatic hydrolysis of racemic amides with partially purified acylase from Rhodococcus equi Ac6. The series is classed as biochemical. Also on record: e.e. (R)-Amide: unit not given here. The protocol:
as §1, §2
The experiments are carried out in the same manner as described in example 22.

In series [3] the test system is whole cells of Rhodococcus globerulus K1/1. Kind of series: Amide hydrolysis with whole cells of Rhodococcus globerulus K1/1. The class given is cell-based.
Description: as §2
To 50 ml of a 10 mM solution in phosphate buffer pH 7.0 of each racemic amide listed in table 16, whole cells of Rhodococcus globerulus K1/1 (each obtained from 50 ml shake flask medium (see example 21), OD660 =2.0) is added. The deacetylation is performed at 30° C. under continuous shaking (200 rpm). The reaction is monitored by HPLC and after the conversion is about 50% the reaction mixtures are worked up in the same manner as described in example 22.

For series [4] the test system is unchanged. Kind of series: Hydrolysis of racemic 2-acetylamino-1(4-chlorophenyl)-4-pentene with whole cells of Rhodococcus globerulus K1/1. The class given is cell-based. The following applies: 80 g racemic amide in 20 l, 21 h at 28° C. Here is the method: Strain K1/1 is grown according to example 3 in a 30 l fermenter filled with 20 l of basic medium containing 1 g/l of racemic N-acetyl-1-phenylethylamine. The cells are harvested by continuous centrifugation and resuspended in the reaction mixture, which is prepared by adding a solution of 80 g racemic 2-acetylamino-1(4-chlorophenyl)-4-pentene in 500 ml methanol to 20 l of potassium phosphate buffer, 69 mM, pH 7. After stirring for 21 h at 28° C. and 500 rpm the amine formed and the unreacted amide are separated and analyzed for their optical purity analogously to the procedure given in example 30.

Another series relates to CC(=O)N[C@@H](C)c1ccccc1. Kind of series: Dependence of the reaction velocity of the Ac6-acylase on substrate concentration (Km). To be noted: other: purified Ac6-acylase, pH 7, 30° C., 10 min, nonlinear regression. The class given is biochemical, Rhodococcus equi Ac6. Here is the method:
Activity assay under the standard conditions given in example 1 with an incubation time of 10 min. are performed using different initial concentrations of (S)-N-acetyl-1-phenylethylamine and the final Ac6-acylase preparation obtained in example 4c, which has been diluted 5 fold with 69 mM potassium phosphate buffer, pH 7, as the enzyme source. The Michaelis constant Km is calculated from the substrate concentrations and the corresponding reaction velocities by numerical nonlinear regression with the program "SigmaPlot for Windows" (Jandel Scientific GmbH, Schimmelbusch, Germany) to the formula: v=Vm×S/(S+Km). v: reaction velocity (U/ml=mM/min.), Vm : maximum reaction velocity (U/ml), S=(S)-N-acetyl-1-phenylethylamine concentration (mM).

[5] abbreviates: enantioselectivity of the hydrolysis.
The mark [6] stands for this setting: formed amine, analysed as acetamide.

T1 sequence (A0A3S5Y3Z2 1-487): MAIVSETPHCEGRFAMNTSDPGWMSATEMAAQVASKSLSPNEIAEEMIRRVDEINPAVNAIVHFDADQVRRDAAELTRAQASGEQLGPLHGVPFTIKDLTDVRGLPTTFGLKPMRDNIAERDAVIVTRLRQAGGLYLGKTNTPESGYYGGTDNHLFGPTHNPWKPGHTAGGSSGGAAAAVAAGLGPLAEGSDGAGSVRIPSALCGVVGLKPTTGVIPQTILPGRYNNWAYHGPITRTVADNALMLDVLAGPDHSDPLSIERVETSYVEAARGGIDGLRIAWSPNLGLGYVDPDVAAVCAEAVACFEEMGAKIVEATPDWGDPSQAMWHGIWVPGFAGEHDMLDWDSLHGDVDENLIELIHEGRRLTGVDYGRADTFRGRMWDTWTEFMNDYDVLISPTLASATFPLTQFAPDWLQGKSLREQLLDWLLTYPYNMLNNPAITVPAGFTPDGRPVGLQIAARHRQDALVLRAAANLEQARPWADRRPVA

On to `C=CCC(Cc1ccccc1)NC(C)=O` (racemic) [2-acetylamino-1-phenyl-4-pentene], for which the “induction of acylase formation by strain K1/1” value in the series on Strain K1/1 is “inducing substance”. The compound further showed a conversion in the series on K1/1 acylase (10 mM racemic substrate, 0.456 U K1/1 acylase, pH 7.0, 30° C.) of 50.3%. Also, the E-value in the series with K1/1 acylase (at 50.3% conversion) is 74.9.
On to `CC(=O)NC(C)c1ccccc1` (racemic) [Substrate 1a, N-acetyl 1-phenylethylamine], for which the “Selectivity E” value in series [1] (setting [5]) is listed as greater than 500; in series [2] (setting [5]), 350; in series [3] (setting [5]) it was greater than 500. Also, in series [1] (formed amine, analysed as acetamide by chiral HPLC), the “e.e. (R)-Amine” value amounted to 98.2. Besides, the “e.e. (S)-Amide” value in series [1] (unconverted amide, chiral HPLC) is recorded as greater than 99.9. The “e.e. (S)-Amine” value in series [2] (setting [6]) is 96.8; in series [3] (setting [6]), 97.5. Also, the “e.e. (R)-Amide” value was 99.3 in series [2] (unconverted amide, chiral HPLC) and greater than 99.9 in series [3] (unconverted amide, chiral HPLC). Besides, in the series on Strain K1/1 (7.38 and 9.84 mM), the “effect on growth of strain K1/1” value was “do not inhibit the growth”. The “induction of acylase formation by strain K1/1” value in the series on Strain K1/1 was “inducing substance”.
Turning to `C=CC[C@H](Cc1ccc(Cl)cc1)NC(C)=O` [(R)-2-acetylamino-1(4-chlorophenyl)-4-pentene], in series [4], the “ee of the unreacted amide” value turned out to be 98.5 % ee.
Take `C=CC[C@H](N)Cc1ccc(Cl)cc1` [(S)-2-amino-1(4-chlorophenyl)-4-pentene]: the “ee of the formed amine” value in series [4] is listed as greater than 99.9 % ee.
In general, Km refers to the substrate concentration at which the rate is half of its maximum. With Ac6-acylase (Rhodococcus equi 103S), the Km in the series on CC(=O)N[C@@H](C)c1ccccc1 worked out at 600 µM.

Source of the values: patent US6235516A, “Biocatalysts with amine acylase activity” (Novartis AG, priority 1996, dated 2001).
